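Interpolation was linear, between the two tested concentrations surrounding the appropriate level; five concentrations were tested over 48 hours in 96-well plates. Abbreviation: GI50, concentration required for 50% inhibition of growth. TGI is the concentration that stops growth completely.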
How the values were obtained:
Assay in all cases: NCI tumour cell line growth inhibition, 48 h
RPMI-8226 leukemia = tested on: RPMI-8226 leukemia
SF-539 CNS = tested on: SF-539 CNS
SR leukemia = tested on: SR leukemia
NCI/ADR-RES ovarian = tested on: NCI/ADR-RES ovarian
HCT-15 colon = tested on: HCT-15 colon
DU-145 prostate = tested on: DU-145 prostate
SK-MEL-5 melanoma = tested on: SK-MEL-5 melanoma
HS 578T breast = tested on: HS 578T breast
SF-268 CNS = tested on: SF-268 CNS
TK-10 renal = tested on: TK-10 renal

| Structure (SMILES) | TGI (RPMI-8226 leukemia) [µM] | TGI (SF-539 CNS) [µM] | TGI (SR leukemia) [µM] | TGI (NCI/ADR-RES ovarian) [µM] | TGI (HCT-15 colon) [µM] | TGI (DU-145 prostate) [µM] | TGI (SK-MEL-5 melanoma) [µM] | TGI (HS 578T breast) [µM] | TGI (SF-268 CNS) [µM] | TGI (TK-10 renal) [µM] | GI50 (RPMI-8226 leukemia) [nM] | GI50 (SF-539 CNS) [nM] | GI50 (NCI/ADR-RES ovarian) [nM] | GI50 (HCT-15 colon) [nM] | GI50 (DU-145 prostate) [nM] | GI50 (SK-MEL-5 melanoma) [nM] | GI50 (HS 578T breast) [nM] | GI50 (SF-268 CNS) [nM] | GI50 (TK-10 renal) [µM] |
| --- | --- | --- | --- | --- | --- | --- | --- | --- | --- | --- | --- | --- | --- | --- | --- | --- | --- | --- | --- |
| COC(=O)C1(Cc2ccc3c(c2)CCC3)Cc2ccc3c(c2C1=O)CCC3 (centres undefined) | 52.7 | 34.8 | 7.76 | 13.8 | > 40.5 | > 100 | 28.2 | 16.4 | > 100 | > 90.1 | – | – | – | – | – | – | – | – | – |
| CCOC(=O)/C(C(N)=O)=C(\O)C(=O)/C=C(\O)c1ccc(Cl)cc1 | 44.8 | – | 44.5 | 45 | 34.8 | 35.8 | 36.8 | > 100 | 59.9 | 26 | – | – | – | – | – | – | – | – | – |
| O=C(N/N=C\c1ccc(Cl)cc1)Nc1ccc2ccccc2c1 | > 100 | 75.7 | > 100 | > 100 | > 100 | > 100 | > 100 | 76.9 | 71.3 | > 100 | – | – | – | – | – | – | – | – | – |
| O=C1OC(C(O)CO)C(C(O)CO)OC1=O (centres undefined) | > 10 | > 10 | > 10 | > 10 | > 10 | – | > 10 | > 10 | > 10 | > 10 | – | – | – | – | – | – | – | – | – |
| CC1[C@@]2(O[C@@H]3C=C4C5CCC6Cc7nc8c(nc7C[C@@]6(C)C5C[C@H](O)[C@@]4(C)[C@]13O)CC1CCc3c(cc4c5c3C(O)C[C@H]5[C@@H](C)C3(O4)OC(C)(C)CC3O)[C@]1(C)C8)O[C@@](C)(CO)C[C@@H]2O (some centres undefined) | 0.21 | > 3.72 | – | > 3.72 | > 3.72 | – | > 3.72 | – | 2.65 | – | – | – | – | – | – | – | – | – | – |
| Nc1cc(OCC2CCCCC2)nc(N)n1 | > 100 | > 100 | – | > 100 | > 100 | > 100 | > 100 | > 100 | > 100 | > 100 | – | – | – | – | – | – | – | – | – |
| O=C1CCCC2=C1CC1=C(CCCC1=O)N2c1ccc(Cl)cc1 | > 100 | > 100 | > 100 | > 100 | > 100 | > 100 | > 100 | > 100 | > 100 | > 100 | – | – | – | – | – | – | – | – | – |
| O=C1c2c(c3c4cc(F)ccc4oc3c3[nH]c4ccccc4c23)C(=O)N1O | 7.31 | 9.09 | – | > 100 | > 100 | > 100 | 2.6 | 9.59 | 25.4 | 53.4 | 1220 | 1600 | 2900 | 1810 | 2150 | 1230 | 2530 | 1200 | 12 |
| CCOP(=O)(OCC)C(c1ccc(F)cc1)N(C(=O)NC(F)(F)F)c1ccc(F)cc1 (centres undefined) | > 100 | > 100 | > 100 | > 100 | > 100 | > 100 | > 100 | > 100 | > 100 | > 100 | – | – | – | – | – | – | – | – | – |
| O=C(O)c1ccc2c(O)c(O)ccc2c1 | 40.2 | > 100 | 13.8 | 55.3 | 55 | > 100 | 35.6 | 70.9 | 22.3 | 18.6 | – | – | – | – | – | – | – | – | – |
| O=c1c(NCc2ccccc2)c(C2(c3ccccc3F)SCCCS2)c1=O | – | > 100 | – | > 100 | > 100 | > 100 | > 100 | > 100 | > 100 | > 100 | – | – | – | – | – | – | – | – | – |
| CN1C/C(=C\c2cccs2)C2=NN(c3ccccc3)C(c3cccs3)C2C1 (centres undefined) | > 100 | > 100 | > 100 | > 100 | > 100 | > 58.2 | > 100 | > 100 | > 40.6 | > 100 | – | – | – | – | – | – | – | – | – |
| COc1cc(/C=C2\C(=O)N(c3cccc(NC(C)=O)c3)C(c3ccccc3)S2(=O)=O)cc(OC)c1OC (centres undefined) | > 100 | > 100 | > 100 | > 100 | > 100 | > 100 | > 100 | – | – | > 100 | – | – | – | – | – | – | – | – | – |
| N=C1OC(CN2CCN(c3ccccc3)CC2)CN1C(=O)Nc1ccccc1 (centres undefined) | > 100 | – | > 100 | > 100 | > 100 | > 100 | > 100 | > 100 | > 100 | > 100 | – | – | – | – | – | – | – | – | – |
| COc1ccc2c(c1)/C(=C\c1c(Cl)nc3n1CCS3)C(=O)N2 | > 100 | 24.9 | – | 88.3 | 62.1 | 72.5 | 17.2 | 44.1 | > 100 | 28.1 | – | – | – | – | – | – | – | – | – |
| COP(=O)(OC)C(N)Cc1c[nH]c2ccccc12 (centres undefined) | > 100 | – | – | > 100 | > 100 | > 100 | > 100 | > 100 | – | > 100 | – | – | – | – | – | – | – | – | – |
| O=C(Cn1c2ccc(Br)cc2c2nc3ccccc3nc21)NCc1ccccc1 | > 100 | – | > 100 | > 100 | > 100 | > 100 | > 100 | 92.4 | > 100 | 49.5 | – | – | – | – | – | – | – | – | – |
| COc1cc(/C=C/C(=O)CC(=O)/C=C/c2cc(C)c(O)c(OC)c2)cc(C)c1O | > 100 | > 100 | > 100 | > 100 | > 100 | > 100 | > 100 | > 100 | > 100 | – | – | – | – | – | – | – | – | – | – |
| O=[N+]([O-])c1ccc(C[P+]2(c3ccccc3)CCCCC2)cc1 (tested in a mixture with another compound) | > 100 | > 100 | – | – | > 100 | – | 84.2 | – | > 100 | > 100 | – | – | – | – | – | – | – | – | – |
| CCC(C)C(Nc1c2ccccc2nc2c(C(=O)NCCN(C)C)cccc12)C(=O)O (centres undefined) | > 100 | – | > 100 | 77.6 | > 100 | > 100 | > 100 | 51.6 | 39.4 | > 100 | – | – | – | – | – | – | – | – | – |
| Cc1ccc([N+](=O)[O-])cc1S(=O)(=O)Nc1ccc(C2=NN(S(=O)(=O)c3cc([N+](=O)[O-])ccc3C)C(c3cccs3)C2)cc1 (centres undefined) | 67.6 | – | 66.1 | > 100 | > 100 | > 100 | > 100 | 53.7 | 75 | > 100 | – | – | – | – | – | – | – | – | – |
